Source: patent publication US9862754B2, “Peptide analogs for treating diseases and disorders” (KeyBioscience AG, priority 2011, dated 2018)
Bridge positions count the residues as written; N and C are the ends. Ends that are not written are not given here.

Assays:
Assay type in all cases: in vivo, rat
[1] = Example 1: chronic oral treatment, body weight and food intake in DIO rats; settings: for body weight: 4 weeks, vs oral vehicle (mimetic also vs oral sCT); for body weight / cumulative food intake: study end; for body weight / food intake: 1 mg/kg p.o. b.i.d. with 150 mg/kg 5-CNAC; for food intake: first week of treatment; for food intake / cumulative food intake: vs oral vehicle; for cumulative food intake: four weeks of treatment, 1 mg/kg p.o. b.i.d.
Method: (§1) The study was performed in male Levin-DIO rats (diet-sensitive) and Levin-DR (diet-resistant) (TacLevin: CD (SD) DIO) (Taconic, Hudson, N.Y., U.S.A.) obtained at age 6-7 weeks. On arrival, DIO rats were given high fat diet (60 kcal %) (#D12495, Research Diets Inc., New Brunswick, N.J., USA) and kept on the same diet for 16 weeks prior to and during the experiment. DR rats were given low-fat diet and served as control group. Animals were pair-wise housed throughout the study. Rats were handled and pre-dosed once daily with MilliQ H2O for 2-3 weeks prior to experimental start to reduce stress-induced hyperglycaemia. Baseline parameters were recorded in an fasting (6 h) condition. Rats were randomized into treatment groups based on fasting body weight (BW) and fasting plasma glucose (FPG). Body weight, food and water intake were recorded once weekly during the study period.
Oral sCT or calcitonin mimetic 1 solution was prepared on the day of dosing by mixing a carrier with the given compound based on the following calculations:
Animals treated with oral sCT or oral calcitonin mimetic 1 received doses of 1.0 mg/kg combined with 150 mg/kg 5-CNAC—all dissolved in milliQ H20.
Drug administration by per oral (p.o.) gavage b.i.d. (7-8 am and 3-4 pm) during the study period and as single dose in the morning prior to start of OGTT.
(§2) Statistical analysis was performed by one-way ANOVA followed by the Dunnett's post hoc test for multiple comparison. Student's t-test was performed to compare two paired group. All analysis was performed using GRAPHPAD PRISM software (GraphPad Prism, San Diego, Calif. U.S.A). Incremental area under curve (iAUC) during OGTT was calculated by the trapezoidal method. A value of P<0.05 was considered to be significant. All data are presented as mean±standard error of the mean (SEM).
One dose of oral sCT/calcitonin mimetic 1 containing 1 mg/kg compound was applied by gavage twice daily to four groups of rats for 4 weeks. An oral vehicle group served as dosing regimen control, respectively. * P<0.05, ** P<0.01, *** P<0.001 vs Vehicle. Results are presented as means±SEM.

[2] = Example 1: fasting glycaemia in DIO rats; settings: following 2 and 4 weeks of treatment, 1 mg/kg p.o. b.i.d.
Method: as §1
Blood sampling and glycemia were measured by heated tail venous puncture.
Whole blood glucose levels were determined with an ACCU-CHEK® Avia blood glucose meter (Roche Diagnostics, Rotkreuz, Switzerland). Blood (approx 300 ul) is collected in 1 ml MiniCollect K3EDTA plasma-tube (Greiner-Bio-One GmbH, Frickenhausen, Germany), inverted, and stored on ice. Tubes are centrifuged 3000×g (5000 rpm in table centrifuge) for 10 min at 4° C. and plasma obtained. Plasma samples are stored at −20° C. until analysis. […]

[3] = Example 3: short-term oral treatment, body weight and food intake in DIO rats
Method: as §1, with “diet for 12 weeks prior” for “diet for 16 weeks prior”, “reduce stress-induced hyperglycemia. On the day prior to study start animals were given a single dose of vehicle. Baseline parameters” for “reduce stress-induced hyperglycaemia. Baseline parameters”, “in an overnight fasting (16” for “in an fasting (6”, “overnight fasting (16 h) condition.” for “an fasting (6 h) condition.”, “were recorded prior to and at study end.” for “were recorded once weekly during the study period.”, “at study end.” for “the study period.”
Animals treated with oral sCT or oral UGP284/UGP298/UGP302 received doses of 0.5 mg/kg, 1.0 mg/kg or 2.0 mg/kg combined with 150 mg/kg 5-CNAC—all dissolved in milliQ H2O.
(§3) Drug administration were given by per oral (p.o.) gavage b.i.d. during the study period and as single dose in the morning prior to start of OGTT.
Following the initial (1st) OGTT, animals were randomized into treatment groups based on FBG and BW. Animals were pre-treated 3 days (b.i.d.) prior to 2nd OGTT. The study was performed in an x-over design with each animal being its own control.
as §2
FIG. 9A, FIG. 9B, FIG. 9C, FIG. 9D, FIG. 9E, and FIG. 9F show the effect of three different doses of oral sCT/UGP284/UGP298/UGP302 containing 0.5, 1 and 2 mg/kg compound were applied by gavage twice daily to 4 groups of rats for 3 days. * P<0.05, ** P<0.01 vs oral sCT. Results are presented as means±SEM.

[4] = Example 2: short-term oral treatment, body weight and food intake in DIO rats; settings: for food intake: 0.5, 1 and 2 mg/kg p.o. b.i.d. for 3 days; for body weight: 0.5, 1 and 2 mg/kg p.o. b.i.d. for 3 days with 150 mg/kg 5-CNAC
Method: as §1, with “diet for 12 weeks prior” for “diet for 16 weeks prior”, “stress-induced hyperglycaemia. On the day prior to study start animals were given a single dose of vehicle. Baseline parameters” for “stress-induced hyperglycaemia. Baseline parameters”, “in an overnight fasting (16” for “in an fasting (6”, “overnight fasting (16 h) condition.” for “an fasting (6 h) condition.”, “were recorded prior to and at study end.” for “were recorded once weekly during the study period.”, “at study end.” for “the study period.”
Animals treated with oral sCT or oral calcitonin mimetic 1 received doses of 0.5 mg/kg, 1.0 mg/kg or 2.0 mg/kg combined with 150 mg/kg 5-CNAC—all dissolved in milliQ H20.
as §3
Following the initial (1st) OGTT, animals are randomized into treatment groups based on FBG and BW. Animals will be pre-treated 3 days (b.i.d.) prior to 2nd OGTT. Dosing will be performed in the morning (7-8 am) and afternoon (3-4 pm).
The study was performed in an x-over design with each animal being its own control.
Three different doses of oral sCT/calcitonin mimetic 1 containing 0.5, 1 and 2 mg/kg compound were applied by gavage twice daily to 4 groups of rats for 3 days. * P<0.05, ** P<0.01 vs oral sCT.

Substance	body weight [1]	food intake [1]	cumulative food intake [1]	fasting glycaemia [2]	reduction in body weight vs oral sCT at same dose ([3]; 0.5 mg/kg p.o. b.i.d. for 3 days, DIO rats)	energy balance vs equivalent doses of oral sCT ([3]; 0.5, 1 and 2 mg/kg doses p.o., male DIO rats)	reduction in body weight vs oral sCT at same dose ([4]; 0.5 mg/kg p.o. b.i.d. for 3 days)	food intake [4]	body weight [4]	body weight ([3]; 0.5, 1 and 2 mg/kg p.o. b.i.d. for 3 days with 150 mg/kg 5-CNAC, DIO rats)	food intake ([3]; 0.5, 1 and 2 mg/kg p.o. b.i.d. for 3 days, DIO rats)
Ac-CSNLSTCVLGKLSQELHKLQTYPRTDVGANAP-NH2 (Ac-CSNLSTCVLGKLSQELHKLQTYPRTDVGANAP-NH2; ends and bridges not checked) [UGP302, calcitonin mimetic]	more pronounced significant reduction in body weight	significantly reduced food intake	significantly reduced	trend towards superiority in fasting glycaemia	significantly difference to oral sCT 0.5 mg/kg	superiority to equivalent doses of oral sCT	significantly difference to oral sCT 0.5 mg/kg	trended dose-dependently reduced compared to oral sCT	dose-dependent superiority to oral sCT		
salmon calcitonin (CSNLSTCVLGKLSQELHKLQTYPRTNTGSGTP-NH2; disulfide 1-7; ends not checked) [sCT, reference compound]	significantly reduced body weight from baseline	significantly reduced food intake	lack of difference	not significantly different from oral vehicle				dose-dependently decreased	dose-dependently decreased	dose-dependently decreased	dose-dependently decreased
